Assay results: patent publication US12729192B2, “CDK9 inhibitor and use thereof” (PHARMABLOCK SCIENCES (NANJING), INC., priority 2020, dated 2026)

Legend:
Format in all cases: biochemical
Conditions in all cases: 10 μM ATP, 2 h at room temperature
CDK2 = biological target: T1, CDK2 (Homo sapiens, UniProt P24941); assay: CDK2 kinase activity inhibition (ADP-Glo)
T1 construct: purchased Carna Biosciences, Inc
Procedure: (§1) CDK9 kinase was manufactured by the company or commercially available. CDK1, CDK2 and CDK7 were purchased from Carna Biosciences, Inc. ADP-Glo™ kit was purchased from Promega Corporation. Dithiothreitol (DTT), Tween-20, dimethylsulfoxide (DMSO), bovine serum albumin (BSA) and Tris base were obtained from Sigma at the available highest level of purity.
(§2) General procedures for CDK inhibition determination: The determination was performed in a buffer consisting of 50 μM DTT, 0.1% BSA, 40 mM Tris-HCl pH=7.5 and 20 mM MgCl2. The compound dissolved in DMSO and CDK enzymes were diluted with the buffer. 1 μL of the compound solution in 5% DMSO and 2 μL of the CDK enzyme solution were added to a white low-volume 384-well microtiter plate and incubated for 20 min at room temperature. Ultra pure ATP and the substrate polypeptide (purchased from GenScript Biotech Corporation) were diluted together into the buffer and added to a mixed solution of the compound and the enzyme, 2 μL per well. They were incubated for 2 h at room temperature.
(§3) After the reaction was completed, 5 μL of ADP-Glo™ reagent was added to each well and incubated for 40 min at room temperature, and then 10 μL of test reagent was added to each well and incubated for 30 mi at room temperature. Chemical luminescence values were measured by using a Tecan (Männedorf, Switzerland) multifunctional plate reader Spark for plate reading. The IC50 value of the inhibitor was obtained by fitting the chemical luminescence intensity ratio in the S-shaped dosage reaction curve using Prism 7 (La Jolla, 15 CA) relative to the concentration of the inhibitor.

CDK9 = CDK9 (Homo sapiens, UniProt P50750); assay: CDK9 kinase activity inhibition (ADP-Glo)
Chain of CDK9 (P50750 whole entry): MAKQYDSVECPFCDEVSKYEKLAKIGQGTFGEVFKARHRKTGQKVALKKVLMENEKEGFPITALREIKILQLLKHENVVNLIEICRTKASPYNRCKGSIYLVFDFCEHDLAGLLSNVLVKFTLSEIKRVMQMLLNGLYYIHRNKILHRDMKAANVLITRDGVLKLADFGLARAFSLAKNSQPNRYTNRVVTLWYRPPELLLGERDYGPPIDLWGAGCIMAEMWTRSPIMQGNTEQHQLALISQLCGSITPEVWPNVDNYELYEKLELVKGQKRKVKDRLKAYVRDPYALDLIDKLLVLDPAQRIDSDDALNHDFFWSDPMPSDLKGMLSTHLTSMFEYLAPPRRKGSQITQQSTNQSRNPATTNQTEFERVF
Chain of CDK9 (O60563 whole entry partner): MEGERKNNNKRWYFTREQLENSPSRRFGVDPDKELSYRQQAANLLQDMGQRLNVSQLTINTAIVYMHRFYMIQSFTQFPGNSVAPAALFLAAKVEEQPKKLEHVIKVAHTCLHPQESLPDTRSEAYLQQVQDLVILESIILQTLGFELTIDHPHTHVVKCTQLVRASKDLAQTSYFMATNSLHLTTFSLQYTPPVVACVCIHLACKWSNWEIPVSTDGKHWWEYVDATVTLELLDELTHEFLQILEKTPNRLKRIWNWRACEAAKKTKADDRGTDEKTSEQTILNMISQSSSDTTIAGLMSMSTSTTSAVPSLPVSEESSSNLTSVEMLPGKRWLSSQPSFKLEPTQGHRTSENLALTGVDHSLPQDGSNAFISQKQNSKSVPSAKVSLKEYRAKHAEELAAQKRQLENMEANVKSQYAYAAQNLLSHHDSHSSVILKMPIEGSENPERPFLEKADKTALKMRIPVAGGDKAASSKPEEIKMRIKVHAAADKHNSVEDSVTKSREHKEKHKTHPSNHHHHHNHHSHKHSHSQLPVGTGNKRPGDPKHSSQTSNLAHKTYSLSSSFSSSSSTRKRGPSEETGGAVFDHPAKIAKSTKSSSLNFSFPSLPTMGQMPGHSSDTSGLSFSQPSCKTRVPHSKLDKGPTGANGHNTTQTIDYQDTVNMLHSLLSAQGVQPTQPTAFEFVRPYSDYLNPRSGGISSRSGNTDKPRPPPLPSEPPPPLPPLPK
Procedure: as §1, §2, §3

CDK7 = biological target: T2, CDK7 (Homo sapiens, UniProt P50613); assay: CDK7 kinase activity inhibition (ADP-Glo)
T2 construct: purchased Carna Biosciences, Inc
T2 sequence (P50613 whole entry): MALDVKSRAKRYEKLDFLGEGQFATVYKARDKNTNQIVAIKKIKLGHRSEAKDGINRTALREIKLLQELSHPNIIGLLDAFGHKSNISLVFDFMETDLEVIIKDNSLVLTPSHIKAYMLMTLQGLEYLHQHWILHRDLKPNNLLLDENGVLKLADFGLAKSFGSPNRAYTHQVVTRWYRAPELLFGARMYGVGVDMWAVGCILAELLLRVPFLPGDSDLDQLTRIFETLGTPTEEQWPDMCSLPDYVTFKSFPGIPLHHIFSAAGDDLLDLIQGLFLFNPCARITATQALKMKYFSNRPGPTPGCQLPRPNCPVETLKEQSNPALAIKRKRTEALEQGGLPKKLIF
T2 sequence (P51946 whole entry partner): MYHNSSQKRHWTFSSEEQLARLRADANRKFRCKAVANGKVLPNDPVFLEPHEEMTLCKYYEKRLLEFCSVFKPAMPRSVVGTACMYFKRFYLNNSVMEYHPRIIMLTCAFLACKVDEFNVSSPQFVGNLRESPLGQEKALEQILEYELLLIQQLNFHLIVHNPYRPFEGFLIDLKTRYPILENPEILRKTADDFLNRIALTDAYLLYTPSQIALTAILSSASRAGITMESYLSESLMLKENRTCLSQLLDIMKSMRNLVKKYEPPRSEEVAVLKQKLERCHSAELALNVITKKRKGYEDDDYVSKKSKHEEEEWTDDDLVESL
T2 sequence (P51948 whole entry partner): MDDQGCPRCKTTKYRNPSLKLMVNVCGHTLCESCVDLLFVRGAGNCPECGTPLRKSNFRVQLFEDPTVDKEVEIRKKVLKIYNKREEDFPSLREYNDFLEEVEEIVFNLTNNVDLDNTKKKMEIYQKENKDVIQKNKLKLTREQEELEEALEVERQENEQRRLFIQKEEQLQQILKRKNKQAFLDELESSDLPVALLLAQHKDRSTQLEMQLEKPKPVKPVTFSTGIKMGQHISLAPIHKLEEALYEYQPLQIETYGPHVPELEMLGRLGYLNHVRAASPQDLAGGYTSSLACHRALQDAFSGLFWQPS
Procedure: as §1, §2, §3

SMILES | IC50 (CDK2) [nM] | IC50 (CDK9) [nM] | IC50 (CDK7) [nM]
CC(=O)NC[C@H]1CCC(F)(F)CN1C(=O)c1nc(Nc2cc3[nH]ccc3cn2)ccc1C [Compound 12, (R)—N-((1-(6-((1H-pyrrolo[3,2-c]pyridin-6-yl)amino)-3-methylpyridine-2-carbonyl)-5,5-difluoropiperidin-2-yl)methyl)acetamide] | > 10000 | 163 | > 10000
CC(=O)NC[C@H]1CCC(F)(F)CN1C(=O)c1nc(Nc2cc(C(C)(C)C)sn2)ccc1C [Compound 13, (R)—N-((1-(6-((5-(t-butyl)isothiazol-3-yl)amino)-3-methylpyridine-2-carbonyl)-5,5-difluoropiperidin-2-yl)methyl)acetamide] | 704 | 64 | > 10000
CC(=O)NC[C@H]1CCC(F)(F)CN1C(=O)c1nc(Nc2cc(-c3cnn4c3CCC4)c(F)cn2)ccc1C [Compound 14, (R)—N-((1-(6-((4-(5,6-dihydro-4H-pyrrolo[1,2-b]pyrazol-3-yl)-5-fluoropyridin-2-yl)amino)-3-methylpyridine-2-carbonyl)-5,5-difluoropiperidin-2-yl)methyl)acetamide] | 1600 | 107 | 1880
CC(=O)NC[C@H]1CCC(F)(F)CN1C(=O)c1nc(Nc2cc(OC3CCC3)ccn2)ccc1C [Compound 16, (R)—N-((1-(6-((4-cyclobutoxypyridin-2-yl)amino)-3-methylpyridine-2-carbonyl)-5,5-difluoropiperidin-2-yl)methyl)acetamide] | 6350 | 54.6 | > 10000
CC(=O)NC[C@H]1CCC(F)(F)CN1C(=O)c1nc(Nc2cc(-c3cnn4c3CCC4)ccn2)ccc1C [Compound 18, (R)—N-((1-(6-((4-(5,6-dihydro-4H-pyrrolo[1,2-b]pyrazol-3-yl)pyridin-2-yl)amino)-3-methylpyridine-2-carbonyl)-5,5-difluoropiperidin-2-yl)methyl)acetamide] | 3310 | 33.6 | 
CC(=O)NC[C@H]1CCC(F)(F)CN1C(=O)c1nc(Nc2cc(C3CCCC3)ccn2)ccc1C [Compound 20, (R)—N-((1-(6-((4-cyclopentylpyridin-2-yl)amino)-3-methylpyridine-2-carbonyl)-5,5-difluoropiperidin-2-yl)methyl)acetamide] | 1230 | 44.1 | 
CC(=O)NC[C@H]1CCC(F)(F)CN1C(=O)c1nc(Nc2cc(N3CCCC3)ccn2)ccc1C [Compound 21, (R)—N-((5,5-difluoro-1-(3-methyl-6-((4-(pyrrolidin-1-yl)pyridin-2-yl)amino)pyridine-2-carbonyl)piperidin-2-yl)methyl)acetamide] | > 10000 | 182 | 
CC(=O)NC[C@H]1CCC(F)(F)CN1C(=O)c1nc(Nc2ncccn2)ccc1C [Compound 23, (R)—N-((5,5-difluoro-1-(3-methyl-6-(pyrimidin-2-ylamino)pyridine-2-carbonyl)piperidin-2-yl)methyl)acetamide] | > 10000 | 4620 | 
CC(=O)NC[C@H]1CCC(F)(F)CN1C(=O)c1nc(Nc2ccncn2)ccc1C [Compound 25, (R)—N-((5,5-difluoro-1-(3-methyl-6-(pyrimidin-4-ylamino)pyridine-2-carbonyl)piperidin-2-yl)methyl)acetamide] | > 10000 | 218 | 
CC(=O)NC[C@H]1CCC(F)(F)CN1C(=O)c1nc(Nc2cnccn2)ccc1C [Compound 26, (R)—N-((5,5-difluoro-1-(3-methyl-6-(pyrazin-2-ylamino)pyridine-2-carbonyl)piperidin-2-yl)methyl)acetamide] | 3610 | 17.8 | 
CC(=O)NC[C@H]1CCC(F)(F)CN1C(=O)c1nc(Nc2ncccc2OC(F)(F)F)ccc1C [Compound 29, (R)—N-((5,5-difluoro-1-(3-methyl-6-((3-(trifluoromethoxy)pyridin-2-yl)amino)pyridine-2-carbonyl)piperidin-2-yl)methyl)acetamide] | > 10000 | 5710 | 
CCOc1ccnc(Nc2ccc(C)c(C(=O)N3CC(F)(F)CC[C@@H]3CN)n2)c1 [Compound 37, (R)-(2-(aminomethyl)-5,5-difluoropiperidin-1-yl)(6-((4-ethoxypyridin-2-yl)amino)-3-methylpyridin-2-yl)methanone] | 3560 | 26.6 | 
Cc1ccc(Nc2cc(OC(F)(F)F)ccn2)nc1C(=O)N1CCCC(F)(F)CC1 [Compound 38, (4,4-Difluoroazepin-1-yl)(3-methyl-6-((4-(trifluoromethoxy)pyridin-2-yl)amino)pyridin-2-yl)methanone] | 447 | 267 | 
CC(=O)N[C@@H]1CN(C(=O)c2nc(Nc3cc(OC(F)(F)F)ccn3)ccc2C)CC(F)(F)C1 [Compound 42, (S)—N-(5,5-difluoro-1-(3-methyl-6-((4-(trifluoromethoxy)pyridin-2-yl)amino)pyridine-2-carbonyl)piperidin-3-yl)acetamide] | 361 | 34.8 | 
CC(=O)N[C@H]1CN(C(=O)c2nc(Nc3cc(OC(F)(F)F)ccn3)ccc2C)CC(F)(F)C1 [Compound 43, (R)—N-(5,5-difluoro-1-(3-methyl-6-((4-(trifluoromethoxy)pyridin-2-yl)amino)pyridine-2-carbonyl)piperidin-3-yl)acetamide] | > 10000 | 167 | 
CC(=O)NCC1CCC(F)(F)CN1C(=O)c1nc(Nc2cc(OC(F)(F)F)ccn2)ccc1C (centres unmarked) [Compound 44, N-((5,5-difluoro-1-(3-methyl-6-((4-(trifluoromethoxy)pyridin-2-yl)amino)pyridine-2-carbonyl)piperidin-2-yl)methyl)acetamide] | 679 | 23 | 
CC(=O)NC[C@H]1CCCCN1C(=O)c1nc(Nc2cc(OC(F)(F)F)ccn2)ccc1C [Compound 45, (R)—N-((1-(3-methyl-6-((4-(trifluoromethoxy)pyridin-2-yl)amino)pyridine-2-carbonyl)piperidin-2-yl)methyl)acetamide] | 884 | 19.9 | 
CCNC(=O)C1CCC(F)(F)CN1C(=O)c1nc(Nc2cc(OC(F)(F)F)ccn2)ccc1C (centres unmarked) [Compound 49, N-ethyl-5,5-difluoro-1-(3-methyl-6-((4-(trifluoromethoxy)pyridin-2-yl)amino)pyridine-2-carbonyl)piperidine-2-carboxamide] | 3210 | 107 | 
CC(=O)N[C@@H]1C[C@H](NC(=O)c2nc(Nc3cc(OC(F)(F)F)ccn3)ccc2C)CC(F)(F)C1 [Compound 50, N-((1S,5R)-5-acetamido-3,3-difluorocyclohexyl)-3-methyl-6-((4-4-trifluoromethoxypyridin-2-yl)amino)pyridine-2-carbonylamide] | > 10000 | 573 | 
CC(=O)N(C)C[C@H]1CCC(F)(F)CN1C(=O)c1nc(Nc2cc(OC(F)(F)F)ccn2)ccc1C [Compound 52, (R)—N-((5,5-difluoro-1-(3-methyl-6-((4-(trifluoromethoxy)pyridin-2-yl)amino)pyridine-2-carbonyl)piperidin-2-yl)methyl)-N-methylacetamide] | 658 | 14.6 | 
CNC(=O)c1ccnc(Nc2ccc(C)c(C(=O)N3CC(F)(F)CC[C@@H]3CNC(C)=O)n2)c1 [Compound 55, (R)-2-((6-(2-(acetamidomethyl)-5,5-difluoropiperidine-1-carbonyl)-5-methylpyridin-2-yl)amino)-N-methyl isonicotinamide] | > 10000 | 28.3 | 
CC(=O)NC[C@H]1CCC(F)(F)CN1S(=O)(=O)c1cc(Nc2cc(OC(F)(F)F)ccn2)ccc1C [Compound 58, (R)—N-((5,5-difluoro-1-((2-methyl-5-((4-(trifluoromethoxy)pyridin-2-yl)amino)phenyl)sulfonyl)piperidin-2-yl)methyl)acetamide] | > 10000 | > 10000 | 
CC(=O)NC[C@H]1CCC(F)(F)CN1Cc1nc(Nc2cc(OC(F)(F)F)ccn2)ccc1C [Compound 62, (R)—N-((5,5-difluoro-1-((3-methyl-6-((4-(trifluoromethoxy)pyridin-2-yl)amino)pyridin-2-yl)methyl)piperidin-2-yl)methyl)acetamide] | > 10000 | 531 | 
CC(C)(C)OC(=O)NC[C@H]1CCC(F)(F)CN1C(=O)c1nc(Nc2cc(OC(F)(F)F)ccn2)ccc1F [Compound 66] | 1260 | 647 | 
CC(=O)NC[C@H]1CCC(F)(F)CN1C(=O)c1cc(Nc2cc(OC(F)(F)F)ccn2)ncc1C [Compound 72, (R)—N-((5,5-difluoro-1-(5-methyl-2-((4-(trifluoromethoxy)pyridin-2-yl)amino)isonicotinoyl)piperidin-2-yl)methyl)acetamide] | > 10000 | 1310 | 
CC(=O)NC[C@H]1CCC(F)(F)CN1C(=O)c1nc(Nc2cc(OC(F)(F)F)ccn2)ncc1C [Compound 76, (R)—N-((5,5-difluoro-1-(5-methyl-2-((4-(trifluoromethoxy)pyridin-2-yl)amino)pyrimidine-4-carbonyl)piperidin-2-yl)methyl)acetamide] | 5780 | 18.4 | 
